Paper PMC12669672, “Structural insights into selective and dual antagonism of EP2 and EP4 prostaglandin receptors” (The EMBO Journal, 2025)
Where “and” joins values, the source holds several entries; their conditions need not be identical. Equal values may be shown once.

Tests used:
Type in all cases: cell-based
[1] = target: T1, constitutively active EP2 W186A (Homo sapiens, UniProt P43116, W186A); test: GloSensor cAMP assay, inhibition of constitutive activity
T1 construct: The full-length EP2 or EP4 was cloned into the pcDNA3.1 vector; FLAG (N); expressed in transfected cells; host or cells: AD293 cells
T1 sequence (P43116 whole entry W186A): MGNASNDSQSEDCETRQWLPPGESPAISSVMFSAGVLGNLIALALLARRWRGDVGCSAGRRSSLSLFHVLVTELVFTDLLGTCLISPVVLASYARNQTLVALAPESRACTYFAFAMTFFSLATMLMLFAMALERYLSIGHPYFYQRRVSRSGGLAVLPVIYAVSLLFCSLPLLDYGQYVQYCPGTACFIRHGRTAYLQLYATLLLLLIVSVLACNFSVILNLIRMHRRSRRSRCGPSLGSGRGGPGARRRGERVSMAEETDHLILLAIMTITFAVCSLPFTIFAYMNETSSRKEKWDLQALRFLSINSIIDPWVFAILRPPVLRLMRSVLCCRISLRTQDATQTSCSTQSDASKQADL
Outline: (§1)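 Read-out is GloSensor luminescence from AD293 cells co-expressing FLAG-tagged EP2 variant and GloSensor22F biosensor, transfected at a 1:1 plasmid ratio. Cells were plated at 4000 per well in CO2-independent medium containing 2% cAMP reagent, incubated 1 h at 37 °C, then read.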

EP2 S86A = target: T2, EP2 S86A (Homo sapiens, UniProt P43116, S86A); test: GloSensor cAMP assay, antagonism of PGE2-induced cAMP; details: single experiments 1st-3rd
T2 construct: The full-length EP2 or EP4 was cloned into the pcDNA3.1 vector; FLAG (N); expressed in transfected cells; host or cells: AD293 cells
T2 sequence (P43116 whole entry S86A): as the sequence (P43116 whole entry W186A) above, with S86A, A186W counted along it
Outline: as §1

EP2 S308A = target: T3, EP2 S308A (Homo sapiens, UniProt P43116, S308A); test: as above; details: single experiments 1st-3rd
T3 construct: The full-length EP2 or EP4 was cloned into the pcDNA3.1 vector; FLAG (N); expressed in transfected cells; host or cells: AD293 cells
T3 sequence (P43116 whole entry S308A): as the sequence (P43116 whole entry W186A) above, with A186W, S308A counted along it
Outline: as §1

EP2 T82A = target: T4, EP2 T82A (Homo sapiens, UniProt P43116, T82A); test: as above; details: 1 h, single experiments 1st-3rd, Fig. 3D, read-out: % cAMP activity (normalized to WT)
T4 construct: The full-length EP2 or EP4 was cloned into the pcDNA3.1 vector; FLAG (N); expressed in transfected cells; host or cells: AD293 cells
T4 sequence (P43116 whole entry T82A): as the sequence (P43116 whole entry W186A) above, with T82A, A186W counted along it
Outline: as §1

EP2 S305A = target: T5, EP2 S305A (Homo sapiens, UniProt P43116, S305A); test: as above; details: single experiments 1st-3rd
T5 construct: The full-length EP2 or EP4 was cloned into the pcDNA3.1 vector; FLAG (N); expressed in transfected cells; host or cells: AD293 cells
T5 sequence (P43116 whole entry S305A): as the sequence (P43116 whole entry W186A) above, with A186W, S305A counted along it
Outline: as §1

EP2-I85V = target: T6, EP2-I85V (Homo sapiens, UniProt P43116, I85V); test: GloSensor cAMP assay, antagonism of PGE2-induced cAMP, chimeric studies; details: single experiments 1st-3rd
T6 construct: The full-length EP2 or EP4 was cloned into the pcDNA3.1 vector; FLAG (N); expressed in transfected cells; host or cells: AD293 cells
T6 sequence (P43116 whole entry I85V): as the sequence (P43116 whole entry W186A) above, with I85V, A186W counted along it
Description: (§2) The full-length EP2 or EP4 was cloned into the pcDNA3.1 vector (Invitrogen), incorporating an N-terminal FLAG tag. AD293 cells were seeded in six-well plates containing DMEM supplemented with 10% dialyzed FBS 1 day prior to transfection. Following overnight growth, cells were transfected with a 1:1 ratio of receptor construct and GloSensor22F cAMP biosensor (Promega) plasmids.
(§3) Twenty-four hours post-transfection, the cells were transferred to CO2-independent media containing 2% GloSensor cAMP Reagent (Promega) and distributed into 384-well assay plates at a density of 4000 cells per well in 10 μL. […] The plates were then incubated at 37 °C for an additional hour before luminescence measurements were taken using an EnVision plate reader.
(§4) Data analysis was performed using GraphPad Prism software v8.0.1. A nonlinear regression analysis, employing a sigmoidal dose–response model, was conducted to determine the Emax values and half-maximum inhibitory concentrations (IC50) for each compound tested.

EP2-L301I = target: T7, EP2-L301I (Homo sapiens, UniProt P43116, L301I); test: as above; details: single experiments 1st-3rd
T7 construct: The full-length EP2 or EP4 was cloned into the pcDNA3.1 vector; FLAG (N); expressed in transfected cells; host or cells: AD293 cells
T7 sequence (P43116 whole entry L301I): as the sequence (P43116 whole entry W186A) above, with A186W, L301I counted along it
Description: as §2, §3, §4

EP2-M116L = target: T8, EP2-M116L (Homo sapiens, UniProt P43116, M116L); test: as above; details: single experiments 1st-3rd
T8 construct: The full-length EP2 or EP4 was cloned into the pcDNA3.1 vector; FLAG (N); expressed in transfected cells; host or cells: AD293 cells
T8 sequence (P43116 whole entry M116L): as the sequence (P43116 whole entry W186A) above, with M116L, A186W counted along it
Description: as §2, §3, §4

[2] = 1 h, PF-04418948 log([M]) -8, Fig. 3D, read-out: % cAMP activity (normalized to WT)
[3] = 1 h, PF-04418948 log([M]) -9, Fig. 3D, read-out: % cAMP activity (normalized to WT)
[4] = 1 h, PF-04418948 log([M]) -10, Fig. 3D, read-out: % cAMP activity (normalized to WT)
[5] = 1 h, PF-04418948 log([M]) -11, Fig. 3D, read-out: % cAMP activity (normalized to WT)
[6] = 1 h, PF-04418948 log([M]) -12, Fig. 3D, read-out: % cAMP activity (normalized to WT)
[7] = 1 h, PF-04418948 log([M]) -7, Fig. 3D, read-out: % cAMP activity (normalized to WT)
[8] = 1 h, ligand log([M]) -5, Fig. S7B, read-out: % cAMP activity (normalized to WT)
[9] = 1 h, ligand log([M]) -6, Fig. S7B, read-out: % cAMP activity (normalized to WT)
[10] = 1 h, ligand log([M]) -7, Fig. S7B, read-out: % cAMP activity (normalized to WT)
[11] = 1 h, ligand log([M]) -8, Fig. S7B, read-out: % cAMP activity (normalized to WT)
[12] = 1 h, ligand log([M]) -9, Fig. S7B, read-out: % cAMP activity (normalized to WT)
[13] = 1 h, ligand log([M]) -10, Fig. S7B, read-out: % cAMP activity (normalized to WT)
[14] = 1 h, ligand log([M]) -12, Fig. S7B, read-out: % cAMP activity (normalized to WT)

## COc1ccc2cc(OCC3(C(=O)O)CN(C(=O)c4ccc(F)cc4)C3)ccc2c1 [PF-04418948]
[1]; 1 h, PF-04418948 log([M]) -6.00, read-out: % cAMP activity (normalized to WT)
  remaining activity at 1 µM: 49.1%
[1]; 1 h, PF-04418948 log([M]) -8.00, read-out: % cAMP activity (normalized to WT)
  remaining activity at 0.01 µM: 95.7%
[1]; 1 h, PF-04418948 log([M]) -9.00, read-out: % cAMP activity (normalized to WT)
  remaining activity at 0.001 µM: 94.5%
[1]; 1 h, PF-04418948 log([M]) -10.00, read-out: % cAMP activity (normalized to WT)
  remaining activity at 0.0001 µM: 103%
[1]; 1 h, PF-04418948 log([M]) -11.00, read-out: % cAMP activity (normalized to WT)
  remaining activity at 10 pM: 108%
[1]; 1 h, PF-04418948 log([M]) -12.00, read-out: % cAMP activity (normalized to WT)
  remaining activity at 1 pM: 90.9%
[1]; PF-04418948, W186A, Mean
  cAMP activity (∆pIC50 from EP2 WT): -2.049
[1]; no PGE2, pIC50 mutant - pIC50 WT, mean
  ΔpIC50: -2.05 ± 0.09
EP2 S86A; [2]
  remaining activity at 0.01 µM: 35%
EP2 S86A; [3]
  remaining activity at 0.001 µM: 61.5%
EP2 S86A; [4]
  remaining activity at 0.0001 µM: 63.4%
EP2 S86A; [5]
  remaining activity at 10 pM: 75.5%
EP2 S86A; [6]
  remaining activity at 1 pM: 72.4%
EP2 S86A; Fig. 3E
  cAMP activity (∆pIC50 from EP2 WT): 0.200 and 0.410 and 0.340
EP2 S308A; [7]
  remaining activity at 0.1 µM: 27.6%
EP2 S308A; [2]
  remaining activity at 0.01 µM: 78.6%
EP2 S308A; [3]
  remaining activity at 0.001 µM: 89.1%
EP2 S308A; [4]
  remaining activity at 0.0001 µM: 86.2%
EP2 S308A; [5]
  remaining activity at 10 pM: 84.2%
EP2 S308A; [6]
  remaining activity at 1 pM: 83.9%
EP2 S308A; Fig. 3E
  cAMP activity (∆pIC50 from EP2 WT): -0.810 and -0.830 and -1.090
EP2 T82A; PF-04418948 log([M]) -6
  remaining activity at 1 µM: 9.17%
EP2 T82A; PF-04418948 log([M]) -7
  remaining activity at 0.1 µM: 19.3%
EP2 T82A; PF-04418948 log([M]) -8
  remaining activity at 0.01 µM: 47.4%
EP2 T82A; PF-04418948 log([M]) -9
  remaining activity at 0.001 µM: 55.3%
EP2 S305A; [7]
  remaining activity at 0.1 µM: 22.4%
EP2 S305A; [2]
  remaining activity at 0.01 µM: 45.9%
EP2 S305A; [4]
  remaining activity at 0.0001 µM: 47.9%
EP2 S305A; [5]
  remaining activity at 10 pM: 41.3%
EP2 S305A; Fig. 3E
  cAMP activity (∆pIC50 from EP2 WT): -1.170 and -1.396 and -1.144
EP2-I85V; [8]
  remaining activity at 10 µM: 4.76%
EP2-I85V; [9]
  remaining activity at 1 µM: 5.53%
EP2-I85V; [10]
  remaining activity at 0.1 µM: 21.6%
EP2-I85V; [11]
  remaining activity at 0.01 µM: 78.7%
EP2-I85V; [12]
  remaining activity at 0.001 µM: 105%
EP2-I85V; [13]
  remaining activity at 0.0001 µM: 94.6%
EP2-I85V; 1 h, ligand log([M]) -11, Fig. S7B, read-out: % cAMP activity (normalized to WT)
  remaining activity at 10 pM: 103%
EP2-I85V; [14]
  remaining activity at 1 pM: 91.7%
EP2-I85V; Appendix Fig. S7A
  cAMP activity (∆pIC50 from EP2 WT): -0.301 and -0.398 and -0.280
EP2-L301I; [8]
  remaining activity at 10 µM: 20%
EP2-L301I; [9]
  remaining activity at 1 µM: 51.7%
EP2-L301I; [10]
  remaining activity at 0.1 µM: 121%
EP2-L301I; [11]
  remaining activity at 0.01 µM: 112%
EP2-L301I; [12]
  remaining activity at 0.001 µM: 117%
EP2-L301I; [13]
  remaining activity at 0.0001 µM: 113%
EP2-L301I; [14]
  remaining activity at 1 pM: 108%
EP2-L301I; Appendix Fig. S7A
  cAMP activity (∆pIC50 from EP2 WT): -1.743 and -1.549 and -1.608
EP2-M116L; [8]
  remaining activity at 10 µM: 11.8%
EP2-M116L; [9]
  remaining activity at 1 µM: 12%
EP2-M116L; [10]
  remaining activity at 0.1 µM: 36.7%
EP2-M116L; [11]
  remaining activity at 0.01 µM: 98.5%
EP2-M116L; [12]
  remaining activity at 0.001 µM: 132%
EP2-M116L; [13]
  remaining activity at 0.0001 µM: 123%
EP2-M116L; [14]
  remaining activity at 1 pM: 116%
EP2-M116L; Appendix Fig. S7A
  cAMP activity (∆pIC50 from EP2 WT): -0.408 and -0.463 and -0.307
